Test results published in patent US12285490B2, “ASH1L degraders and methods of treatment therewith” (The Regents of the University of Michigan, priority 2017, dated 2025).

Assays:
ASH1L = biological target: T1, ASH1L (Homo sapiens, UniProt Q9NR48); assay: Western blot of ASH1L degradation in HeLa cells; format: cell-based
T1 construct: endogenous in cells; host or cells: HeLa cells
Procedure: The 2.5×10^5 HeLa cells were treated with compounds for 24 h followed by the lysis in the RIPA buffer. The protein samples were loaded and run in the 3-8% Tris-acetate gel. After transferring proteins to the PVDF membrane, 5% bovine serum albumin solution was used for blocking for 2 h at room temperature. The membranes were incubated with the ASH1L-specific antibody (Bethyl A301-749A) at 4° C. overnight and subsequently with the anti-rabbit secondary antibody (Cell signaling technology, 7074S). The blots were detected by an ECL detection system (Amersham, RPN2236).

[1] = tested on: acute leukemia cell lines; assay: Cell viability / proliferation in various acute leukemia cell lines; format: cell-based, human; conditions: after 7 days of treatment
Procedure: (§1) Human leukemia cells were plated at 1×10^5 cells/ml in 24-well plates, treated with 0.25% DMSO or compounds and cultured at 37° C. for 7-14 days. Every four days, the volume corresponding to 1×10^5 cells of DMSO-treated cells was spun down and resuspended in fresh media with fresh compound. At day 0 and each four day interval, 100 μl aliquots of the cell suspension were transferred to 96-well plates in quadruplicates. The quadruplicate samples were incubated for 3-4 days at 37° C., and then an MTI cell proliferation assay kit (Roche) was used to measure viable cells. Absorbance was read at 570 nm using a PHERAstar (BMG) microplate reader.

[2] = tested on: acute leukemia cell lines; assay: Differentiation of leukemia cells (Cytospin/Wright-Giemsa staining); format: cell-based, human; conditions: after 7 days of treatment
Procedure: 1×10^5 of leukemia cells treated with compounds or DMSO were harvested and placed in a Shandon EZ Single Cytofunnel (Thermo Fisher). Samples were centrifuged at 600 rpm for 5 min. The slides were air dried before staining with a Hema-3 kit (Thermo Fisher).

[3] = tested on: MLL fusion target genes in MV4:11 MLL leukemia cell line; assay: Quantitative RT-PCR gene expression in MV4:11 cells; format: cell-based, human; conditions: after 7 days of treatment
Procedure: (§2) Total RNA was extracted from cells using the RNeasy mini kit (QIAGEN), and then 100-2000 ng of total RNA was reverse transcribed using the High Capacity cDNA Reverse Transcription Kit (Applied Biosystems) according to the manufacturer's protocol. Real-time PCR was performed using a CFX96 Real-Time PCR Detection System (Biorad). TaqMan Gene Expression Master Mix and TaqMan Gene Expression Assays were purchased from Thermo Fisher. Relative quantification of each gene transcript was carried out using the ΔΔCt method as described in the Biorad Real-Time PCR Applications Guide.

MV4:11 = assay: Cell viability assay (MTT) in MV4:11 cells; format: cell-based; conditions: Homo sapiens, 168 h; MV4:11, after 7 days of treatment
Procedure: as §1

MOLM13 = assay: Cell viability assay (MTT) in MOLM13 cells; format: cell-based; conditions: Homo sapiens, MOLM-13, 168 h; MOLM13, after 7 days of treatment
Procedure: as §1

KOPN8 = assay: Cell viability assay (MTT) in KOPN8 cells; format: cell-based; conditions: Homo sapiens, KOPN-8, 168 h; KOPN8, after 7 days of treatment
Procedure: as §1

K562 control cell line = assay: Cell viability assay (MTT) in K562 control cell line; format: cell-based; conditions: Homo sapiens, 168 h, after 7 days of treatment
Procedure: as §1

[4] = tested on: MLL fusion protein target genes in MOLM13 leukemia cell line; assay: Quantitative RT-PCR gene expression in MOLM13 cells; format: cell-based, human; conditions: after 6 days of treatment at 150 nM
Procedure: as §2

[5] = tested on: MV4:11 xenotransplantation model; assay: In vivo efficacy in MV4:11 xenotransplantation model; conditions: MV4:11 xenotransplantation model in mice, 25 mg/kg, i.p., q.d., 17 days of treatment
Excerpt: Exemplary compounds disclosed herein, were used for in vivo studies in mice. Immunocompromised 8-10 week-old female NSG mice were used for in vivo efficacy studies in accordance with IACUC guidelines. Luciferase expressing human MV4:11 leukemia cells (MV4:11-luc) were engrafted intravenously via tail vein injection (1×10^7 cells/animal). Five days after transplantation mice were randomly assigned to a vehicle control or a compound treatment group (6-7 animals per group). Animals in each of the treatment groups were administered vehicle or compound A of the present disclosure by intraperitoneal (i.p.) injection. Treatment was continued for 17 days. Body weight was measured daily, while mean luminescence signal was measured in all mice at days 10 and 17 after initiating the treatment. […]

Degradation of ASH1L (ASH1L; FIG. 1, Western blot) | Degradation of ASH1L (ASH1L; HeLa cells, after 24 h of treatment, FIG. 4 Panel A) | GI50 (MV4:11) [nM] | GI50 (MOLM13) [nM] | GI50 (K562 control cell line) [nM] | Structure (SMILES) | Cell proliferation / viability [1] | Differentiation [2] | Expression of MLL fusion target genes [3] | GI50 (KOPN8) [nM] | Expression of MLL fusion protein target genes [4] | Leukemia progression in vivo (bioluminescence signal, hCD45+ cells) [5]
Degradation of Ash1L induced |  |  |  |  | NC(=S)c1cccc(-c2cn(CC(CF)CF)c3cc(NC(=O)CCOCCOCCOCCOc4cccc5c4C(=O)N(C4CCC(=O)NC4=O)C5=O)ccc23)c1 (stereo not drawn) [Compound 1, N-(3-(3-carbamothioylphenyl)-1-(3-fluoro-2-(fluoromethyl)propyl)-1H-indol-6-yl)-3-(2-(2-(2-((2-(2,6-dioxopiperidin-3-yl)-1,3-dioxoisoindolin-4-yl)oxy)ethoxy)ethoxy)ethoxy)propanamide] | selectively blocks proliferation | induces differentiation | downregulates expression of MLL fusion target genes |  |  | 
 | induces degradation of ASH1L | 62 | 52 | > 6000 | NC(=S)c1cccc(-c2cn(C3CCC(F)(F)CC3)c3cc(NC(=O)CCCCCCCCNC(=O)COc4cccc5c4C(=O)N(C4CCC(=O)NC4=O)C5=O)ccc23)c1 (stereo not drawn) [Compound 24, N-(3-(3-carbamothioylphenyl)-1-(4,4-difluorocyclohexyl)-1H-indol-6-yl)-9-(2-((2-(2,6-dioxopiperidin-3-yl)-1,3-dioxoisoindolin-4-yl)oxy)acetamido)nonanamide] | inhibits viability |  |  | 103 | downregulates the expression of MLL fusion protein target genes | blocks leukemia progression
